Where two headings read alike, the source gives them in different places.
How the values were obtained:
[1] = system: Common Cutworm (Spodoptera litura); assay: whole plant or invertebrate; conditions: for Mortality (%): 5th or 6th day
Method: They were diluted to a predetermined concentration with water containing a spreader (Shin-Rinoh 0.040) and subjected to the test by themselves or as a mixed liquid.
A leaf segment of cabbage was dipped for about 10 seconds in an insecticidal solution and dried in air. A wet filter paper was laid in a petri dish having a diameter of 9 cm, and the dried leaf segment of cabbage was placed thereon. 10 Second-instar larvae of common cutworm were released therein and after putting a cover, left in a constant temperature chamber at 25° C. with lightening. On the 5th or 6th day after release, dead larvae were counted, and the mortality was calculated by the following equation. Here, the insects that were moribund were counted as dead insects. Mortality (%)={(number of dead insects)/(number of surviving insects+number of dead insects)}×100
Further, the theoretical mortality (%) can be calculated from the colby's formula.

[2] = system: Green Peach Aphid (Myzus persicae); assay: Test on Controlling Effects Against Green Peach Aphid (radish leaf dip); type: in vivo; conditions: third day after the dipping; for mortality at 0.05 ppm: other pesticide alone 0.05 ppm; for mortality at 100 ppm: other pesticide alone 100 ppm; for mortality at 200 ppm: other pesticide alone 200 ppm
Method: Japanese radish leaf (cut into about 2 cm×3 cm) was put in a test tube in which water was put, and Larvae of green peach aphid were released on the leaf. […] On the third day after the dipping, dead larvae were counted, and the mortality was calculated from the following equation. Aphids that dropped from leaf or were moribund were included in the number of dead. […] Mortality (%)=(number of dead insects/number of treated insects)×100

[3] = system: Green Rice Leafhopper (Nephotettix cincticeps); assay: Test on Controlling Effects Against Green Rice Leafhopper (rice seedling dip); type: in vivo
From the text: The root was wrapped with absorbent cotton wet with water, and the rice seedling was put in a test tube.

[4] = Spodoptera litura, in Brassica oleracea, foliar

With `Cc1c(COC(=O)[C@@H]2[C@H](/C=C(\Cl)C(F)(F)F)C2(C)C)cccc1-c1ccccc1` (racemic) [Bifenthrin, bifenthrin] the mortality at 0.4 ppm [1, 4] was 0%, the mortality at 0.8 ppm [1, 4] was 40% and the mortality at 0.025 ppm ([2]; Myzus persicae, foliar, other pesticide alone 0.025 ppm) was 0%. The mortality at 0.05 ppm ([2]; Myzus persicae, foliar) was 4%.
For `CCCCCCCCCCCCC1=C(OC(C)=O)C(=O)c2ccccc2C1=O` [Acequinocyl, acequinocyl], the mortality at 37.5 ppm [1, 4] was 0%, the mortality at 75 ppm [1, 4] was 0% and the mortality at 150 ppm [1, 4] was 0%.
With `C/C(=N\C#N)N(C)Cc1ccc(Cl)nc1` [Acetamiprid, acetamiprid] the mortality at 12.5 ppm [1, 4] was 0% and the mortality at 25 ppm [1, 4] was 10%.
`Cc1ccc(/N=C/N(C)/C=N/c2ccc(C)cc2C)c(C)c1` [Amitraz, amitraz] was tested, and the mortality at 62.5 ppm [1, 4] was 0%.
`C/C=C(\C)C(=O)O[C@H]1C[C@@H](OC(C)=O)[C@@]2(C(=O)OC)CO[C@H]3[C@@H](O)[C@@](C)([C@]45O[C@@]4(C)[C@H]4C[C@@H]5O[C@@H]5OC=C[C@@]54O)[C@H]4[C@]1(CO[C@]4(O)C(=O)OC)[C@@H]32` [Azadirachtin, azadirachtin] showed a mortality at 3.1 ppm [1, 4] of 0%, a mortality at 6.2 ppm ([2]; Myzus persicae, foliar, other pesticide alone 6.2 ppm) of 0% and a mortality at 12.5 ppm ([2]; Myzus persicae, foliar, other pesticide alone 12.5 ppm) of 88%.
In the case of `CO/C=C(/C(=O)OC)c1ccccc1Oc1cc(Oc2ccccc2C#N)ncn1` [Azoxystrobin, azoxystrobin], the “Mortality (%)” value ([3]; other pesticide alone 25 ppm, 5th or 6th day) is reported as 30%.
`CCC1(C(=O)N[C@H](C)c2ccc(Cl)cc2)C(C)C1(Cl)Cl` (stereo partly shown) [Carpropamid, carpropamid] gave a mortality at 100 ppm ([2]; Myzus persicae, foliar) of 82% and a mortality at 200 ppm ([2]; Myzus persicae, foliar) of 93%.
Work on `CCOCn1c(-c2ccc(Cl)cc2)c(C#N)c(Br)c1C(F)(F)F` [Chlorfenapyr, chlorfenapyr] yielded a mortality at 0.4 ppm [1, 4] of 20%.
For `O=C(NC(=O)c1c(F)cccc1F)Nc1cc(Cl)c(Oc2ncc(C(F)(F)F)cc2Cl)c(Cl)c1` [Chlorfluazuron, chlorfluazuron], the mortality at 0.0025 ppm [1, 4] was 0%, the mortality at 0.005 ppm [1, 4] was 0% and the mortality at 0.01 ppm [1, 4] was 0%.
In the case of `CN/C(=N\[N+](=O)[O-])NCc1cnc(Cl)s1` [Clothianidin, clothianidin], the mortality at 12.5 ppm [1, 4] is reported as 90%.
With `Nc1nc(N)nc(NC2CC2)n1` [Cyromazine, cyromazine] the mortality at 25 ppm [1, 4] was 30% and the mortality at 50 ppm [1, 4] was 60%.
`CC1(C)[C@H](C(=O)O[C@H](C#N)c2cccc(Oc3ccccc3)c2)[C@@H]1C=C(Br)Br` [Deltamethrin, deltamethrin] showed a mortality at 0.4 ppm [1, 4] of 30%.
Molecule `C[C@@H](NC(=O)C(C#N)C(C)(C)C)c1ccc(Cl)cc1Cl` (stereo partly shown) [Diclocymet, diclocymet] has a mortality at 18.8 ppm [1, 4] of 0%, a mortality at 37.5 ppm [1, 4] of 0% and a mortality at 75 ppm [1, 4] of 0%. For the same molecule, the mortality at 0.4 ppm ([3]; Nephotettix cincticeps) was 0% and the mortality at 0.8 ppm ([3]; Nephotettix cincticeps) was 0%.
Work on `Cc1c(Cl)cc(-c2ccc(=O)[nH]n2)cc1Cl` [Diclomezine, diclomezine] yielded a mortality at 100 ppm ([2]; Myzus persicae, foliar) of 0% and a mortality at 200 ppm ([2]; Myzus persicae, foliar) of 0%.
`CN/C(=N/CC1CCOC1)N[N+](=O)[O-]` (stereo not shown) [Dinotefuran, dinotefuran] gave a mortality at 3.1 ppm [1, 4] of 0%, a mortality at 6.2 ppm [1, 4] of 0% and a mortality at 12.5 ppm [1, 4] of 13%.
In the case of `N#Cc1nn(-c2c(Cl)cc(C(F)(F)F)cc2Cl)c(N)c1[S+]([O-])C(F)(F)F` (stereo not shown) [Fipronil, fipronil], the mortality at 0.4 ppm [1, 4] is reported as 10% and the mortality at 0.8 ppm [1, 4] is reported as 60%.
`N#CCNC(=O)c1cnccc1C(F)(F)F` [Flonicamid, flonicamid] was tested, and the “Mortality (%)” value ([1]; other pesticide alone 25 ppm) was 0%, the “Mortality (%)” value ([1]; other pesticide alone 50 ppm) was 30% and the “Mortality (%)” value ([1]; other pesticide alone 100 ppm) was 0%. The “Mortality (%)” value ([2]; other pesticide alone 0.8 ppm) was 38% and the “Mortality (%)” value ([2]; other pesticide alone 1.5 ppm) was 70%.
`O=C(NC(=O)c1c(F)cccc1F)Nc1ccc(Oc2ccc(C(F)(F)F)cc2Cl)cc1F` [Flufenoxuron, flufenoxuron] was tested, and the mortality at 0.01 ppm [1, 4] was 0%, the mortality at 0.02 ppm [1, 4] was 20% and the mortality at 0.04 ppm [1, 4] was 20%.
`CC(C)Oc1cccc(NC(=O)c2ccccc2C(F)(F)F)c1` [Flutolanil, flutolanil] gave a mortality at 125 ppm ([2]; Myzus persicae, foliar, other pesticide alone 125 ppm) of 0% and a mortality at 250 ppm ([2]; Myzus persicae, foliar, other pesticide alone 250 ppm) of 6%.
`CCOP(=O)(SC(C)CC)N1CCSC1=O` (stereo not shown) [Fosthiazate, fosthiazate] was tested, and the mortality at 25 ppm [1, 4] was 88%.
`O=C1OCc2c(Cl)c(Cl)c(Cl)c(Cl)c21` [Fthalide, fthalide] showed a mortality at 50 ppm [1, 4] of 0%, a mortality at 100 ppm [1, 4] of 0% and a mortality at 200 ppm [1, 4] of 0%. For the same molecule, the mortality at 50 ppm ([3]; Nephotettix cincticeps, other pesticide alone 50 ppm, 5th or 6th day) was 0%, the mortality at 100 ppm ([3]; Nephotettix cincticeps, other pesticide alone 100 ppm, 5th or 6th day) was 0% and the mortality at 200 ppm ([3]; Nephotettix cincticeps, other pesticide alone 200 ppm, 5th or 6th day, read-out: Mortality (%)) was 0%.
`O=[N+]([O-])NC1=NCCN1Cc1ccc(Cl)nc1` [Imidacloprid, imidacloprid] was tested, and the mortality at 12.5 ppm [1, 4] was 20%, the mortality at 50 ppm [1, 4] was 75% and the mortality at 0.05 ppm ([2]; Myzus persicae, foliar) was 60%. It also gave a mortality at 0.1 ppm ([2]; Myzus persicae, foliar, other pesticide alone 0.1 ppm) of 67%.
With `CC(C)OC(=O)C(C(=O)OC(C)C)=C1SCCS1` [Isoprothiolane, isoprothiolane] the mortality at 200 ppm ([3]; Nephotettix cincticeps) was 50%.
For `C[C@H]1O[C@H](O[C@H]2[C@H](O)[C@@H](O)[C@@H](O)[C@H](O)[C@@H]2O)[C@@H](N)C[C@@H]1NC(=N)C(=O)O` [Kasugamycin, kasugamycin], the “Mortality (%)” value ([2]; other pesticide alone 11.5 ppm) was 0%.
With `O=C(NC(=O)c1c(F)cccc1F)Nc1cc(Cl)c(OC(F)(F)C(F)C(F)(F)F)cc1Cl` (stereo not shown) [Lufenuron, lufenuron] the mortality at 0.0125 ppm [1, 4] was 70%.
`Cc1ccccc1C(=O)Nc1cccc(OC(C)C)c1` [Mepronil, mepronil] was tested, and the mortality at 187.5 ppm ([3]; Nephotettix cincticeps) was 0%.
In the case of `O=C(Nc1ccccc1)N(Cc1ccc(Cl)cc1)C1CCCC1` [Pencycuron, pencycuron], the mortality at 125 ppm [1, 4] is reported as 0%.
Molecule `CC1(C)C(C=C(Cl)Cl)C1C(=O)OCc1cccc(Oc2ccccc2)c1` (stereo not shown) [Permethrin, permethrin] has a mortality at 3.1 ppm [1, 4] of 0%.
In the case of `CC(C)=CC1C(C(=O)OCc2cccc(Oc3ccccc3)c2)C1(C)C` (stereo not shown) [Phenothrin, phenothrin], the mortality at 12.5 ppm [1, 4] is reported as 20% and the mortality at 25 ppm [1, 4] is reported as 80%.
For `C=CCOC1=NS(=O)(=O)c2ccccc21` [Probenazole, probenazole], the mortality at 100 ppm ([2]; Myzus persicae, foliar) was 0%, the mortality at 200 ppm ([2]; Myzus persicae, foliar) was 13% and the mortality at 200 ppm ([3]; Nephotettix cincticeps) was 0%.
Work on `C#CCOS(=O)OC1CCCCC1Oc1ccc(C(C)(C)C)cc1` (stereo not shown) [Propargite, propargite] yielded a mortality at 50 ppm [1, 4] of 0%, a mortality at 100 ppm [1, 4] of 0% and a mortality at 200 ppm [1, 4] of 0%.
Molecule `CC(C)(C)c1ccc(CSc2cnn(C(C)(C)C)c(=O)c2Cl)cc1` [Pyridaben, pyridaben] has a mortality at 100 ppm [1, 4] of 0% and a mortality at 200 ppm [1, 4] of 10%.
With `FC(F)(F)c1ccc(OCCCOc2c(Cl)cc(OCC=C(Cl)Cl)cc2Cl)nc1` [Pyridalyl, pyridalyl] the mortality at 0.4 ppm [1, 4] was 0% and the mortality at 1.5 ppm [1, 4] was 80%.
For `CC(=O)N1C(=O)N(NCc2cccnc2)Cc2cc(C(F)(C(F)(F)F)C(F)(F)F)ccc21` [Pyrifluquinazon, pyrifluquinazon], the “Mortality (%)” value ([1]; other pesticide alone 25 ppm) was 0%, the “Mortality (%)” value ([1]; other pesticide alone 50 ppm) was 0% and the “Mortality (%)” value ([1]; other pesticide alone 100 ppm) was 0%.
In the case of `O=C1CCc2cccc3c2N1CC3` [Pyroquilon, pyroquilon], the mortality at 50 ppm [1, 4] is reported as 0%, the mortality at 100 ppm [1, 4] is reported as 0% and the mortality at 200 ppm [1, 4] is reported as 0%.
In the case of `CCc1ccc(C(=O)NN(C(=O)c2cc(C)cc(C)c2)C(C)(C)C)cc1` [Tebufenozide, tebufenozide], the mortality at 1.5 ppm [1, 4] is reported as 20%.
In the case of `N#C/N=C1\SCCN1Cc1ccc(Cl)nc1` [Thiacloprid, thiacloprid], the mortality at 50 ppm [1, 4] is reported as 67%.
`Cc1ccc(NC(=O)c2snnc2C)cc1Cl` [Tiadinil, tiadinil] was tested, and the mortality at 50 ppm [1, 4] was 0%, the mortality at 100 ppm [1, 4] was 0% and the mortality at 200 ppm [1, 4] was 0%.
`Cc1cccc2sc3nncn3c12` [Tricyclazole, tricyclazole] showed a mortality at 100 ppm ([2]; Myzus persicae, foliar) of 13% and a mortality at 200 ppm ([2]; Myzus persicae, foliar) of 0%.
Molecule `OCC1=C[C@H](N[C@H]2C[C@H](CO)[C@@H](O[C@@H]3O[C@H](CO)[C@@H](O)[C@H](O)[C@H]3O)[C@H](O)[C@H]2O)[C@H](O)[C@@H](O)[C@@H]1O` [Validamycin, validamycin] has a mortality at 25 ppm [1, 4] of 0% and a mortality at 50 ppm [1, 4] of 0%.
For `CC1(C)C(C=C(Cl)Cl)C1C(=O)OC(C#N)c1cccc(Oc2ccccc2)c1` (stereo not shown) [Zeta-cypermethrin, zeta-cypermethrin], the mortality at 0.4 ppm [1, 4] was 0%, the mortality at 0.8 ppm [1, 4] was 0% and the mortality at 1.5 ppm [1, 4] was 20%.
`CC(C)([CH2][Sn]([CH2]C(C)(C)c1ccccc1)([CH2]C(C)(C)c1ccccc1)[O][Sn]([CH2]C(C)(C)c1ccccc1)([CH2]C(C)(C)c1ccccc1)[CH2]C(C)(C)c1ccccc1)c1ccccc1` [fenbutatin oxide] was tested, and the “Mortality (%)” value ([1]; other pesticide alone 200 ppm) was 0%.
In the case of emamectin-benzoate, the “Mortality (%)” value ([1]; other pesticide alone 0.0025 ppm) is reported as 0%, the “Mortality (%)” value ([1]; other pesticide alone 0.005 ppm) is reported as 10% and the “Mortality (%)” value ([1]; other pesticide alone 0.01 ppm) is reported as 30%.
With spinosad the “Mortality (%)” value ([1]; other pesticide alone 1.5 ppm) was 20%, the “Mortality (%)” value ([1]; other pesticide alone 3.1 ppm) was 60% and the “Mortality (%)” value ([1]; other pesticide alone 6.2 ppm) was 60%.

From patent US10039284B2, “Pesticidal compositions” (priority 2006, dated 2018)
